Laboratory results: patent publication US20180311204A1, “METHOD FOR PREVENTING OR TREATING HEART FAILURE” (GUANGZHOU MEDICAL UNIVERSITY, priority 2017, published 2018)

Columns and labels:
[1] = tested on: Myocardial Ischemia Rat Model; test: Determination of infarct size by TTC staining; assay type: in vivo; details: compared to the infarction group
Method: 60 rats were randomized into 6 groups: (i) sham group (Sham), n=10, (left anterior descending (LAD) coronary arteries of the rats were only laid upon sutures without ligation, and 0.5% Tween normal saline was injected intraperitoneally); (ii) infarction group (AMI), n=10, (LAD coronary arteries of the rats were ligated before 0.5% Tween normal saline was injected intraperitoneally); (iii) nobiletin group of low dosage (AMI+NOB-L, n=10; LAD coronary arteries of the rats were ligated before 7.5 mg/kg nobiletin was injected intraperitoneally); (v) nobiletin group of medium dosage (AMI+NOB-M), n=10, (LAD coronary arteries of the rats were ligated before 15 mg/kg nobiletin was injected intraperitoneally); (vi) nobiletin group of high dosage (AMI+NOB-H), n=10, (LAD coronary arteries of the rats were ligated before 30 mg/kg nobiletin was injected intraperitoneally); (vii) enalapril group (AMI+Enalapril), n=10, (LAD coronary arteries of the rats were ligated before 10 mg/kg enalapril was given intragastrically); echocardiograms were taken after the 21-day experiment. Male SD rats were weighed and then anaesthetized by intraperitoneal injections of 10% chloral hydrate (300 mg/kg). The rats were fixed on a table lying on their back, each connected with an electrocardiography and 2-lead electrocardiograms (ECGs) were recorded. The rats were inserted with trachea cannulas and artificially ventilated with a ventilator (positive airway pressure, frequency: 70 times/min, Ti/(I:E)=5:4, VT: about 15 ml/kg). Sterilized the left parasternal skin on the third and forth intercostals regions, cut the skin and separated muscle layers trough blunt dissection, opened the thorax, then cut the pericardium to expose the left ventricle and the left auricle, the left ventricle coronary artery was seen descending from the middle of the left auricle to the anterior wall of the left ventricle (see FIG. 1). Using left coronary artery as a reference, between left auricle and pulmonary conus arteriosus, the left anterior descending (LAD) coronary arteries of the rats were ligated by NO. 6-0 sutures. ST segments rose in 2-lead electrocardiogram of the rat after LAD ligation (see FIG. 2), and myocardial ischemia symptoms such as the distal myocardial tissues turned pale after LAD ligation acted as an index of whether the ligation worked (see FIG. 3). Sham-treated rats underwent the same surgical procedure without the ligation of LAD coronary artery. […] When myocardial infarction occurs for some time, dehydrogenases in the cells were released and lost due to cell membrane damages. Because TTC is not deoxidized into a colored form, infarcted myocardium cannot be stained. […] (2) […]: Removed atriums and right ventricles, restored left ventricles were weighed and recorded. […] Weighed and recorded each slices. […]

[2] = tested on: Myocardial Ischemia Rat Model; test: Echocardiography in myocardial ischemia rat model (LAD ligation), effect of nobiletin on ventricle; assay type: in vivo; details: 21-day experiment, compared to the infarction group
H9C2 cells = test: Apoptosis detection by Annexin V/PI staining in cardiomyocytes subjected to oxygen-glucose deprivation (OGD); assay type: cell-based; details: H9C2 cells with OGD treatment, 5, 10, 20, 40, 80 μM nobiletin, dose-dependent manner, versus OGD control
Method: In vitro, H9C2 cells with OGD treatment were used to model myocardial ischemia. OGD treatment: the cells were cultured and subjected to OGD when the density of the cells reached to 80%-90%. Collected the OGD-treated cells from the medium and rinsed trice with glucose-free EBSS, after that cultured the cells in the same medium at 37° C. in an anoxia chamber saturated with 94% N2/5% CO2/1% O2 for a preset time.
After previous procedures, the cells were digested with 0.25% trypsin and collected to stain with both fluorescein isothiocyanate (FITC) labeled […] (Annexin V-FITC) and PI (according to the manufacturer's protocol of Annexin V-FITC kits). Flow cytometry detection was carried out immediately under an excitation wavelength of […] to detect 1×10^4 cells. PI emits light of a wavelength about 623 nm (red fluorescence) while FITC emits light of about 520 nm (green fluorescence). Analyzed the detection data by CELLQEST Software and the results were shown in scatter plots (see FIG. 9A-9F) and statistics (see FIG. 10).

[3] = enalapril group, 10 mg/kg intragastrically
[4] = AMI+Enalapril, 10 mg/kg intragastrically
[5] = nobiletin groups (7.5, 15, 30 mg/kg intraperitoneally)
[6] = AMI+NOB-H, 30 mg/kg intraperitoneally
[7] = AMI+NOB-M, 15 mg/kg intraperitoneally

Compound	infarct area percentages (FIG. 8) [1, 3]	white infarct areas in TTC-stained myocardium (FIG. 7) [1, 3]	left ventricular ejection fraction (LVEF) [2, 4]	left ventricular fractional shortening (LVFS) [2, 4]	rise of left ventricular internal dimension, diastolic (LVIDD) [2, 4]	rise of left ventricular internal dimension, systolic (LVIDS) [2, 4]	infarct area percentages (FIG. 8) [1, 5]	white infarct areas in TTC-stained myocardium (FIG. 7) [1, 5]	left ventricular ejection fraction (LVEF) [2, 6]	left ventricular fractional shortening (LVFS) [2, 6]	rise of left ventricular internal dimension, diastolic (LVIDD) [2, 6]	rise of left ventricular internal dimension, systolic (LVIDS) [2, 6]	left ventricular ejection fraction (LVEF) [2, 7]	left ventricular fractional shortening (LVFS) [2, 7]	rise of left ventricular internal dimension, diastolic (LVIDD) [2, 7]	rise of left ventricular internal dimension, systolic (LVIDS) [2, 7]	apoptosis resulting from OGD (H9C2 cells)
CCOC(=O)[C@H](CCc1ccccc1)N[C@@H](C)C(=O)N1CCC[C@H]1C(=O)O [enalapril, reference compound]	lower	smaller	significantly increased	significantly increased	no significant reduction	significantly reduced											
COc1ccc(-c2cc(=O)c3c(OC)c(OC)c(OC)c(OC)c3o2)cc1OC [nobiletin]							lower	smaller	significantly increased	significantly increased	no significant reduction	significantly reduced	significantly increased	significantly increased	no significant reduction	significantly reduced	significantly reduced
